Experimental findings from paper PMC9380671, “Development of spiro-3-indolin-2-one containing compounds of antiproliferative and anti-SARS-CoV-2 properties” (Scientific Reports, 2022) are described below.

The subject of assay [1] is PaCa2 (pancreatic) cancer cell line. The experiment in a line: MTT antiproliferation, PaCa-2. The assay is classed as cell-based, human. The note with it: for IC50: Homo sapiens, PaCa-2, 72 h, read-out: IC50 (µM) ± SEM PaCa-2; for SI (selectivity index) PaCa-2: IC50 of RPE1/IC50 of cancer cell line.
Assay [2] concerns RPE1 (normal human immortalized retinal pigment epithelial cell line). Description: MTT toxicity towards normal cells, RPE1. The class given is cell-based. The note with it: RPE-1, read-out: IC50 (µM) ± SEM RPE1.
Another assay deals with BChE (Homo sapiens, UniProt P06276). The experiment in a line: BChE inhibition (DTNB, butyrylthiocholine iodide).
Sequence of BChE (P06276 29-602, species assumed): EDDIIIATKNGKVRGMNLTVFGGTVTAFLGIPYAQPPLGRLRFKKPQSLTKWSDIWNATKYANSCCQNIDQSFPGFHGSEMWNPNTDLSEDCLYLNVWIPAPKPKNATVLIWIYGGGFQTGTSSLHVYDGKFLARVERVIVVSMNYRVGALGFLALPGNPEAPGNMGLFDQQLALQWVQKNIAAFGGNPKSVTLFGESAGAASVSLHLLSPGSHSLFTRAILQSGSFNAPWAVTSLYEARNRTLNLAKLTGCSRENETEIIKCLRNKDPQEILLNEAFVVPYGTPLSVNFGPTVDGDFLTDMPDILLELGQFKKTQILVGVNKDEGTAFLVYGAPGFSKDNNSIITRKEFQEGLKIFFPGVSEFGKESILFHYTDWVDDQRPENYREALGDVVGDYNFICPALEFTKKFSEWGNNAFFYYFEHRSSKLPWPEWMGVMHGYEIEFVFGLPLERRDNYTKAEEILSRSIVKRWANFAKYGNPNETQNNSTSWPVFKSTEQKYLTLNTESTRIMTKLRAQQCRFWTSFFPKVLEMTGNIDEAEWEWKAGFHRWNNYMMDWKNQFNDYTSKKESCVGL
Assay [3] has as its system MCF7 (breast) cancer cell line. Description: MTT antiproliferation, MCF7. The class given is cell-based, human. The note with it: for IC50: Homo sapiens, MCF7, 72 h, read-out: IC50 (µM) ± SEM MCF7; for SI (selectivity index) MCF7: IC50 of RPE1/IC50 of cancer cell line. The method, boiled down: (§1)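 Cells seeded 30000/well for 24 h, then treated for 72 h with triplicate wells per dose; 0.5% DMSO as negative control. MTT (2.5 mg ml^-1) added for 4 h at 37 °C, crystals dissolved in 10% SDS overnight. Surviving fraction = O.D. treated / O.D. control.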

Assay [4] has as its system HCT116 (colon) cancer cell line. The experiment in a line: MTT antiproliferation, HCT116. The assay is classed as cell-based, human. To be noted: for IC50: Homo sapiens, HCT-116, 72 h, read-out: IC50 (µM) ± SEM HCT116; for SI (selectivity index) HCT116: IC50 of RPE1/IC50 of cancer cell line. The essentials:
as §1

For the next assay, the target named is AChE (Homo sapiens, UniProt P22303). The experiment in a line: AChE inhibition (DTNB, acetylthiocholine). The note with it: for IC50: read-out: AChE (IC50, μM) ± SD. The class given is biochemical. As for the experimental part: All compounds were dissolved in MeOH.
Sequence of AChE (P22303 32-614): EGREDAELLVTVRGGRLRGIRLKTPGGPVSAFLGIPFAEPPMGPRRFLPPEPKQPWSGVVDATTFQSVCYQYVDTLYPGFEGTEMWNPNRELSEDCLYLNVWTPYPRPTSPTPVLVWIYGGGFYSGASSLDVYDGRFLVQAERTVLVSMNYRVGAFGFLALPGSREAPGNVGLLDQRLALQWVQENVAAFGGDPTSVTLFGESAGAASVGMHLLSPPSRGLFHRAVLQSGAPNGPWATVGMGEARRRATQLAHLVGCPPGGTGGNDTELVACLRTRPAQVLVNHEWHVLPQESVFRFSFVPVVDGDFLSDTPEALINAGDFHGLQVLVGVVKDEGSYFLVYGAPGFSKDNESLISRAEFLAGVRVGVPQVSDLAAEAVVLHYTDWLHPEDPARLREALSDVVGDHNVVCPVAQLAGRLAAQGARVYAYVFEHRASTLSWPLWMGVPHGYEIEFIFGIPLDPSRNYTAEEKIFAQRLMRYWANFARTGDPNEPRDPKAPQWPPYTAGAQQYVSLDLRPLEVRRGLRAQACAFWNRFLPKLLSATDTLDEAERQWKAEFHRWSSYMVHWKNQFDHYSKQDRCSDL
Assay [5] relates to MCF7 (breast cancer cell line). The experiment in a line: Annexin V-FITC apoptosis/necrosis studies. The assay is classed as cell-based, human. To be noted: MCF7, compound at its MTT IC50. An excerpt: It is also notable that both the tested compounds increase the apoptosis of the tested cancer cells. Moreover, the total amount of apoptosis for the tested cell line is higher for compound 6m than that for 6l (total number of apoptosis = 38.41, 42.55 for compounds 6l and 6m, respectively). […] On the other hand, necrosis observed for compound 6m is relatively higher than that of compound 6l (necrosis = 3.01, 3.96 for compounds 6l and 6m, respectively). […] These observations agree with the antiproliferation properties observed through MTT assay (Table 3, Fig. 8).
Cell cycle studies for the most promising agents synthesized (6l and 6m) against MCF7 (breast) cancer call were conducted by the standard technique. The Cells were suspended in DMEM medium in addition to 1% antibiotic–antimycotic mixture (10000 μg ml^-1 potassium penicillin, 10000 μg ml^-1 streptomycin sulfate and 25 μg ml^-1 amphotericin B), 10% fetal bovine serum and 1% L-glutamine at 37 °C, under 5% CO2 and 95% humidity. Cells were seeded at concentration of 30000 cells per well in fresh complete growth medium in 96-well tissue culture microtiter plates for 24 h. Media was aspirated, fresh complete medium was added and cells were incubated with the IC50 concentration of the tested compounds which determined previously in the MTT antiproliferation testing assay. The ab139418-Propidium Iodide Flow Cytometry kit for cycle analysis (reader: BD FACS Calibur)^8 was used for cell cycle analysis. The Annexin V-FITC Apoptosis Detection Kit (Catalog#K101-25) was utilized for apoptosis studies.^9 All the studies were conducted according to the manufacturer’s instruction.

Procedure for BChE: Butyrylthiocholine iodide and acetylthiocholine were utilized as substrates in BChE and AChE assays, respectively, where DTNB was served as indicator. All compounds were dissolved in MeOH. […] Blank assays were performed by replacing the enzyme (20 μL) with buffer and their absorbances were recorded for correction of the spontaneous lysis of the indicator or inherent color of the inhibitor.
% Inhibition = [1−(corrected A/corrected B)] * 100

With `CCS(=O)(=O)N1C/C(=C\c2ccc(Cl)cc2)C(=O)C2(C1)C(c1ccc(Cl)cc1)CN(C)C21C(=O)Nc2ccc(Cl)cc21` (stereo not shown) [Compound 6l, (E)-5-Chloro-5″-(4-chlorobenzylidene)-4′-(4-chlorophenyl)-1″-(ethylsulfonyl)-1′-methyldispiro[indoline-3,2′-pyrrolidine-3′,3″-piperidine]-2,4″-dione], in assay [1], the IC50 was determined as 11.9 ± 0.83 µM and the “SI (selectivity index) PaCa-2” value is given as more than 4.2. Further, the IC50 in assay [2] is more than 50 µM. Also, on BChE, the IC50 came to 11.8 ± 0.95 µM. In assay [3], the IC50 is 3.99 ± 0.31 µM and the “SI (selectivity index) MCF7” value is given as more than 12.5. For the same molecule, in assay [4], the IC50 is 4.11 ± 0.41 µM and the “SI (selectivity index) HCT116” value was more than 12.2. For the same molecule, on AChE, the “SI = IC50 (AChE)/IC50 (BChE)” value is reported as 2.0 and the half-maximal inhibitory concentration (IC50) came to 23.6 ± 7.73 µM. Besides, in assay [5], the “Apoptosis (%) Early” value worked out at 14.39%, the “Apoptosis (%) Late” value stood at 21.01%, the “Apoptosis (%) Total” value is recorded as 38.41% and the Necrosis amounted to 3.01%.
On to `CN1CC(c2ccc(Br)cc2)C2(CN(S(C)(=O)=O)C/C(=C\c3ccc(Br)cc3)C2=O)C12C(=O)Nc1ccccc12` (stereo not shown) [Compound 6m, (E)-5″-(4-Bromobenzylidene)-4′-(4-bromophenyl)-1′-methyl-1″-(methylsulfonyl)dispiro[indoline-3,2′-pyrrolidine-3′,3″-piperidine]-2,4″-dione], for which, in assay [1], the IC50 stood at 12.5 ± 0.67 µM and the “SI (selectivity index) PaCa-2” value stood at 1.2. Further, in assay [2], the IC50 is 14.9 ± 1.61 µM. At BChE, this molecule came in with an IC50 of 27.9 ± 2.96 µM. In addition, in assay [3], the IC50 came to 3.6 ± 0.19 µM and the “SI (selectivity index) MCF7” value is 4.1. Besides, in assay [4], the IC50 came to 3.24 ± 0.27 µM and the “SI (selectivity index) HCT116” value came out at 4.6. Besides, on AChE, the “SI = IC50 (AChE)/IC50 (BChE)” value worked out at 1.1 and the IC50 was found to be 29.7 ± 4.05 µM. In assay [5], the “Apoptosis (%) Early” value was found to be 24.88%, the “Apoptosis (%) Late” value was determined as 13.71%, the “Apoptosis (%) Total” value worked out at 42.55% and the Necrosis is 3.96%.

What is called IC50 is the point on the concentration scale where inhibition reaches its midpoint.
